Measured values taken from US10647702B2, “Aryl-substituted imidazoles” (St. Jude Children's Research Hospital, priority 2010, dated 2020).

What was measured:
[1] = Liver microsomal stability, mouse; assay type: in vitro ADME; details: for mouse liver microsome t(½): female CD-1 mouse liver microsomes, 37° C.; for CLint scaled at 19.8 µM: female, CD-1, mouse, liver microsomes, pH 7.4, intrinsic clearance calculated from t1/2, read-out: mouse liver microsome CLint′
Procedure: (§1) 1.582 mL of mouse liver microsome (20 mg/mL, female CD-1 mice, pooled, Fisher Scientific, # NC9567486) was mixed with 0.127 ml of 0.5M EDTA solution and 48.3 ml potassium phosphate buffer (0.1M, pH 7.4, 37° C.) to make 50 ml of mouse liver microsome solution. Human liver microsomal solution was made with human liver microsome (50 pooled mix gender, Fisher Scientific #50-722-516) the same way. 1 volume of 10 mM DMSO compound stock was mixed with 4 volume of acetonitrile to make 2 mM diluted compound stock in DMSO and acetonitrile. 37.83 μL, diluted compound stock was added to 3 mL liver microsomal solution and vortexed to make microsomal solution with compound. 1 ml of liver microsomal solution with compound is added to each well of a master storage plate (pION Inc., MA, #110323). All compounds are in triplicates. Mouse and human liver microsomes were tested side by side on the same plate. 175 μL of each well was dispensed from the master plate into 5 storage plates. For 0 hour time point, 450 pit pre-cooled (4° C.) internal standard (10 μM warfarin in methanol) was added to the first plate before the reaction starts. 5.25 ml of microsome assay solution A (Fisher Scientific, # NC9255727) was combined with 1.05 ml of solution B (Fisher Scientific, # NC9016235) in 14.7 ml of potassium phosphate buffer (0.1 M, pH 7.4). 45 μL of this A+B solution was added to each well of all the 96-well storage plates and mixed with pipette briefly. The plates are sealed, and all plates except 0-hr plate were incubated at 37° C., shaken at a speed of 60 rpm. 0.5 hr, 1 hr, 2 hr and 4 hr time points were taken. At each time point, 450 μL pre-cooled internal standard was added to the plate to quench the reaction. The quenched plate was then centrifuged (model 5810R, Eppendorf, Westbury, N.Y.) at 4000 rpm for 15 minutes. 150 μL supernatant was transferred to a 96-well plate and analyzed by UPLC-MS (Waters Inc., Milford, Mass.). The compounds and internal standard were detected by SIR. The log peak area ratio (compound peak area/internal standard peak area) was plotted vs time (hr) and the slope was determined to calculate the elimination rate constant [k=(−2.303)*slope]. The half life (hr) was calculated as t (1/2)=0.693/k. Intrinsic clearance was calculated as CLint′=(0.693/(t1/2))*(1/microsomal concentration in the reaction solution)*(45 mg microsome/gram liver)*(gram liver/kg b.w.), where microsomal concentration in the reaction solution is 0.5 mg/ml, and gram liver/kg b.w. of CD-1 female mice and human are 52 and 20, respectively.

[2] = Liver microsomal stability, human; assay type: in vitro ADME; details: for CLint scaled at 19.8 µM: both sexes, human, liver microsomes, pH 7.4, intrinsic clearance calculated from t1/2, read-out: Human liver microsome CLint′; for human liver microsome t(½): pooled human liver microsomes, 37° C.
Procedure: as §1

[3] = Plasma stability, mouse plasma; assay type: in vitro ADME; details: 37° C., up to 48 hr
Procedure: (§2) Compound stocks were 10 mM in DMSO. The internal standard was 10 μM warfarin in methanol. 1.9 ml mouse plasma (Fisher Scientific, catalog #: NC9050370) or pooled human plasma (Innovative Research Inc., catalog # IPLA-1) was added to the columns of 1, 4, 7 and 10 of a 2 ml 96-well deep well plate (pION Inc., MA, #110023); this was the master plate. 1.9 μl compound stock was added to each well with plasmas and mixed well. Using a multi-channel pipette, 600 μl from the columns of 1, 4, 7 and 10 were taken and added into the rest of the columns (fluids in column 1 added to columns 2 and 3, column 4 into 5 and 6, and so on). From the master plate, 65 μl were taken from each well and added into 8 storage plates (pION Inc., MA, #110323), each for a time point. The storage plates was then incubated at 37° C. and shaken at 60 rpm. Samples were taken at 0 min, 30 min, 1 hr, 2 hr, 4 hr, 8 hr, 24 hr and 48 hr. At each time point, 195 μl internal standard was added to quench the reaction. The plates were then centrifuged at 4000 rpm for 15 min and supernatant was analyzed by UPLC-MS. The compound was detected by SIR and quantitation was based on peak area ratio of test compound vs. the internal standard.

[4] = Plasma stability, pooled human plasma; assay type: in vitro ADME; details: 37° C., up to 48 hr
Procedure: as §2

PBS stability = assay type: physicochemical; details: PBS pH 7.4, 37° C., up to 48 hr
Procedure: as §2, with “ml PBS (Mediatech Inc., Manassas, Va.,” for “ml mouse plasma (Fisher Scientific,”, “catalog #21-040-CM)” for “catalog #: NC9050370) or pooled human plasma (Innovative Research Inc., catalog # IPLA-1)”, “with […]” for “with plasmas”, “65 pil” for “65 μl”

Row | mouse liver microsome t(½) [1] | CLint scaled at 19.8 µM [1] | CLint scaled at 19.8 µM [2] | human liver microsome t(½) [2] | mPlasma stability t(½) [3] | hPlasma stability t(½) [4] | PBS pH 7.4 stability t(½) (PBS stability) | Compound
1 | 2.17 h | 24.9 mL/min/kg | 12.1 mL/min/kg | 1.72 h | >48 h | >48 h | >48 hr | COc1ccc(C2=N[C@@H](c3cccc(Cl)c3)[C@@H](c3ccc(Cl)cc3)N2C(=O)N2CCNC(=O)C2)c(OC(C)C)c1 [SJ000558295-1]
2 | 0.73 h | 73.9 mL/min/kg | 14.2 mL/min/kg | 1.46 h | >48 h | >48 h | >48 hr | COc1ccc(C2=NC(c3cccc(C)c3)C(c3ccc(Cl)cc3)N2C(=O)N2CCNC(=O)C2)c(OC(C)C)c1 (centres unmarked) [SJ000558304-1]
